Assay results published in ChEMBL document CHEMBL5107956, “Natural products from mangrove sediments-derived microbes: Structural diversity, bioactivities, biosynthesis, and total synthesis” (Eur J Med Chem, 2022).
In brackets after ≈: the same amount, converted by molar mass.

What was measured:
[1] = system: NCI-H2122; assay: Cytotoxicity against human NCI-H2122 cells assessed as cell growth inhibition measured after 96 hrs by CellTiter-Glo assay; format: functional, cell-based; conditions: NCI-H2122, 96 h
[2] = Cytotoxicity against human HCC366 cells assessed as cell growth inhibition measured after 96 hrs by CellTiter-Glo assay; format: functional, cell-based; conditions: HCC366, 96 h
[3] = system: Trypanosoma brucei brucei; assay: Antitrypanosomal activity against Trypanosoma brucei brucei GUTat3.1 assessed as parasite growth inhibition measured after 72 hrs by alamar blue staining based analysis; format: functional, organism-based; conditions: GUTat3.1, 72 h
[4] = system: A549; assay: Cytotoxicity against human A549 cells assessed as cell growth inhibition measured after 72 hrs by MTT assay; format: functional, cell-based; conditions: A549, 72 h
[5] = system: Bel-7402; assay: Cytotoxicity against human Bel-7402 cells assessed as cell growth inhibition measured after 72 hrs by MTT assay; format: functional, cell-based; conditions: Bel-7402, 72 h
[6] = biological target: 20S proteasome; assay: Inhibition of 20S proteasome (unknown origin) by fluorescence based assay; format: protein-complex assay, Homo sapiens
[7] = biological target: Angiotensin-converting enzyme (Homo sapiens, UniProt P12821); assay: Inhibition of ACE (unknown origin) using hippuryl-histidyl-leucine as substrate pre-incubated with compound for 10 mins followed by substrate addition measured after 60 mins by HPLC analysis
Angiotensin-converting enzyme, sequence (P12821 whole entry): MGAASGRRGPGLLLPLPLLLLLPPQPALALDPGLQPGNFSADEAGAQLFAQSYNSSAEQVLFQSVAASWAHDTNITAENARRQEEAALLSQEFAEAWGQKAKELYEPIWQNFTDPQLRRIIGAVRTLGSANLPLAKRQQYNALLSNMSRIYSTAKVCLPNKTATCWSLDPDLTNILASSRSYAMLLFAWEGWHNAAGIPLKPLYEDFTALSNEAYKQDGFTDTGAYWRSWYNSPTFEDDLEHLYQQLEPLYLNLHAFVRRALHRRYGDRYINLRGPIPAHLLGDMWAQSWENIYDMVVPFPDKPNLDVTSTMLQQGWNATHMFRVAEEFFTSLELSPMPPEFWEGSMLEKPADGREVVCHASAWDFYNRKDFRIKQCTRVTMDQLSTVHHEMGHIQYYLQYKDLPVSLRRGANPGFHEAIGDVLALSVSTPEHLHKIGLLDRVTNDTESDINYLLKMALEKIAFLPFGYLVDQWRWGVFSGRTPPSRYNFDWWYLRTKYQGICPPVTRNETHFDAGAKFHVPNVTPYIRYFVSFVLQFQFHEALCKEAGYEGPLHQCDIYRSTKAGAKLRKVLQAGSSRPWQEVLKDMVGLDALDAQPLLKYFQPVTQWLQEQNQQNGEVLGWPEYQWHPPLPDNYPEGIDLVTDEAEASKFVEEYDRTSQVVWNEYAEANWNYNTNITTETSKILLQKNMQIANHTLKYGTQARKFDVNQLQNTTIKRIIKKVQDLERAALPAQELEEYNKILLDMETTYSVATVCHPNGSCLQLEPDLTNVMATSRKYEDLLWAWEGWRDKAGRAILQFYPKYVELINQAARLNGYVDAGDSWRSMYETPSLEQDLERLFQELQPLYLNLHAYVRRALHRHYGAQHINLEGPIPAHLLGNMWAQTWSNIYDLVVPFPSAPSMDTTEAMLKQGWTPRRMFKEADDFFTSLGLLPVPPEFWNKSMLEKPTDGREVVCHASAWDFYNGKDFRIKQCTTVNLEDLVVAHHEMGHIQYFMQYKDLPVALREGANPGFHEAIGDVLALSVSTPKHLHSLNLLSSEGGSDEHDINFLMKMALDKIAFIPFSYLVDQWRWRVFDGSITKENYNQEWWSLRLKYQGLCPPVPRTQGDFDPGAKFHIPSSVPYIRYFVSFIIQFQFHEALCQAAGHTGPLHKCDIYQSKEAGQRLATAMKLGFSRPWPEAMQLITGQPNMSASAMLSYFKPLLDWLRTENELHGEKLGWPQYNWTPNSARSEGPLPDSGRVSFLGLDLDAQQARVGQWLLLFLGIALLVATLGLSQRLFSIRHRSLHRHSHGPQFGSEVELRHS

[8] = system: ACHN; assay: Antiproliferative activity against human ACHN cells assessed as cell growth inhibition; format: functional, cell-based
[9] = system: Trypanosoma brucei brucei; assay: Antitrypanosomal activity against Trypanosoma brucei brucei GUTat3.1 assessed as parasite growth inhibition measured after 24 hrs by alamar blue staining based analysis; format: functional, organism-based; conditions: GUTat3.1, 24 h
[10] = system: Plasmodium falciparum; assay: Antiplasmodial activity against Plasmodium falciparum 3D7 infected in human erythrocyte assessed as intraerythrocytic growth inhibition measured after 24 hrs by alamar blue staining based analysis; format: functional, organism-based; conditions: 3D7, Erythrocyte
[11] = system: Leishmania major; assay: Antileishmanial activity against Leishmania major NR48815 promastigotes assessed as parasite growth inhibition incubated for 24 hrs by alamar blue staining based analysis; format: functional, organism-based; conditions: NR48815, 24 h
[12] = system: Leishmania donovani; assay: Antileishmanial activity against Leishmania donovani D10 promastigotes assessed as parasite growth inhibition incubated for 24 hrs by alamar blue staining based analysis; format: functional, organism-based; conditions: D10, 24 h
[13] = biological target: Rho-associated protein kinase 2 (Homo sapiens, UniProt O75116); assay: Inhibition of ROCK2 (unknown origin) by HTRF kinase assay
Rho-associated protein kinase 2, sequence (O75116 whole entry): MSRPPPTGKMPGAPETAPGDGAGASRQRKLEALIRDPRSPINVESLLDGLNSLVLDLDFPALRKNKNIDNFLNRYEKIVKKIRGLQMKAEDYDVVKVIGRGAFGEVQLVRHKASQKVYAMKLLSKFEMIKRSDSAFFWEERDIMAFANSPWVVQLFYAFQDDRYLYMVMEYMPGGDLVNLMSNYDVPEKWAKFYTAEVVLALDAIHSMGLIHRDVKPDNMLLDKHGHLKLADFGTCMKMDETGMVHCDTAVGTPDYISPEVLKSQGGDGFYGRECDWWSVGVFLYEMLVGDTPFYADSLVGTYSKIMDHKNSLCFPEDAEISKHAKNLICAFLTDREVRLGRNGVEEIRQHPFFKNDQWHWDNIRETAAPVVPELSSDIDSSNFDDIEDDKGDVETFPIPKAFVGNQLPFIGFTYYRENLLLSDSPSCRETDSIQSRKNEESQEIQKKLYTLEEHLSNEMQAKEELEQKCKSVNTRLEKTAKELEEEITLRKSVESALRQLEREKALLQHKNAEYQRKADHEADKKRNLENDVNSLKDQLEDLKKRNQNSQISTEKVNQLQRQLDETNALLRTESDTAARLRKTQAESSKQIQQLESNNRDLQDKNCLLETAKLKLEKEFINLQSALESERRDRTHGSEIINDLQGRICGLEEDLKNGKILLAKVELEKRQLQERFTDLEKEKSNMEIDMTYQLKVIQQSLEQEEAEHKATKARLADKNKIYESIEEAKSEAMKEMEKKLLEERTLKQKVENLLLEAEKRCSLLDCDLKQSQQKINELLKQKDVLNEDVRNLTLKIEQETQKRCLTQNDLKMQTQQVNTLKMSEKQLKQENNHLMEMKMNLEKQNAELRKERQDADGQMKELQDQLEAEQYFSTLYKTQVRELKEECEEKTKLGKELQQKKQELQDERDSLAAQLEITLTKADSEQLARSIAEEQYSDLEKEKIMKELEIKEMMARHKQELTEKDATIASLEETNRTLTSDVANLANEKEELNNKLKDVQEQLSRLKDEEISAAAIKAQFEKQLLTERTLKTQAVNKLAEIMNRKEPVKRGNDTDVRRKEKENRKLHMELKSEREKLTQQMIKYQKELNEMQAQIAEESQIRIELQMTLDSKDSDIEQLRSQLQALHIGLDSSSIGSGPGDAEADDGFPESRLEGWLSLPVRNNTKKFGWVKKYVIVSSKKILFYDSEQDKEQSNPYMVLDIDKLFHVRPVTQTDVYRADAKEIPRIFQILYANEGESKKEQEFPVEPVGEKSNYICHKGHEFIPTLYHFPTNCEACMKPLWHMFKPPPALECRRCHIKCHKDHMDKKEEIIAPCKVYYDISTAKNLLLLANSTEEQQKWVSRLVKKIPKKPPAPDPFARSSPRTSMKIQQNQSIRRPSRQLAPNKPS

[14] = system: Staphylococcus aureus; assay: Antibacterial activity against Staphylococcus aureus assessed as bacterial growth inhibition measured after 24 hrs by optical density based analysis; format: functional
[15] = system: Limimaricola hongkongensis; assay: Antibacterial activity against Limimaricola hongkongensis assessed as bacterial growth inhibition measured after 24 hrs by optical density based analysis; format: functional
[16] = system: HOP-92; assay: Cytotoxicity against human HOP-92 cells assessed as cell growth inhibition; format: functional
[17] = system: PC-3; assay: Cytotoxicity against human PC-3 cells assessed as cell growth inhibition; format: functional
[18] = system: OVCAR-3; assay: Cytotoxicity against human OVCAR-3 cells assessed as cell growth inhibition; format: functional
[19] = system: HCT-116; assay: Cytotoxicity against human HCT-116 cells assessed as cell growth inhibition; format: functional
[20] = system: LOX IMVI; assay: Cytotoxicity against human LOX IMVI cells assessed as cell growth inhibition; format: functional
[21] = system: ACHN; assay: Antiproliferative activity against human ACHN cells assessed as cell growth inhibition measured after 72 hrs by CCK-8 assay; format: functional, cell-based
[22] = system: K562; assay: Antiproliferative activity against human K562 cells assessed as cell growth inhibition measured after 72 hrs by CCK-8 assay; format: functional, cell-based; conditions: K562, 72 h
[23] = system: HL-60; assay: Antiproliferative activity against human HL-60 cells assessed as cell growth inhibition measured after 72 hrs by CCK-8 assay; format: functional, cell-based; conditions: HL-60, 72 h
[24] = system: HCT-8; assay: Cytotoxicity against human HCT-8 cells assessed as cell growth inhibition by MTT assay; format: functional, cell-based
[25] = system: Bel-7402; assay: Cytotoxicity against human Bel-7402 cells assessed as cell growth inhibition by MTT assay; format: functional, cell-based
[26] = system: A2780; assay: Cytotoxicity against human A2780 cells assessed as cell growth inhibition by MTT assay; format: functional, cell-based
[27] = system: A549; assay: Antiproliferative activity against human A549 cells assessed as cell growth inhibition by MTT assay; format: functional, cell-based
[28] = system: NCI-H460; assay: Cytotoxicity against human NCI-H460 cells assessed as cell growth inhibition incubated for 48 hrs by MTT assay; format: functional, cell-based; conditions: NCI-H460, 48 h
[29] = system: MCF7; assay: Cytotoxicity against human MCF7 cells assessed as cell growth inhibition incubated for 48 hrs by MTT assay; format: functional, cell-based; conditions: MCF7, 48 h
[30] = system: SF-268; assay: Cytotoxicity against human SF-268 cells assessed as cell growth inhibition incubated for 48 hrs by MTT assay; format: functional, cell-based; conditions: SF-268, 48 h
[31] = system: Salmonella enterica; assay: Antibacterial activity against Salmonella enterica ATCC 6539 assessed as bacterial cell growth inhibition measured after 24 hrs by Bactiter-glo assay; format: functional
[32] = system: SMMC-7721; assay: Antiproliferative activity against human SMMC-7721 cells assessed as cell growth inhibition; format: functional, cell-based
[33] = system: Candida albicans; assay: Antifungal activity against Candida albicans assessed as fungal growth inhibition; format: functional
[34] = system: Influenza A virus; assay: Antiviral activity against Influenza A virus H1N1 by CPE inhibition assay; format: functional, organism-based
[35] = Antioxidant activity assessed as DPPH radical scavenging activity incubated for 30 mins by […] assay; format: functional
[36] = system: Candida albicans; assay: Antifungal activity against Candida albicans MTCC 227 assessed as cell growth inhibition measured after 48 to 72 hrs; format: functional; conditions: time 48-72 hrs
[37] = system: Saccharomyces cerevisiae; assay: Antifungal activity against Saccharomyces cerevisiae MTCC 170 assessed as cell growth inhibition measured after 48 to 72 hrs; format: functional; conditions: time 48-72 hrs
[38] = system: Aspergillus niger; assay: Antifungal activity against Aspergillus niger MTCC 282 assessed as cell growth inhibition measured after 48 to 72 hrs; format: functional; conditions: time 48-72 hrs

COc1cc2nc(C(=O)NCC(=O)O)sc2c(C/C=C(\C)CC/C=C(\C)CC/C=C(\C)CCC/C(C)=C\CC(=O)O)c1O
IC50 [1]: 2500 nM | IC50 [2]: 6800 nM

CCCC1C(O)=C2CCC3(C)CC(C)C(O3)C(C)C(O)C(C)C(=O)CC1OC2=O (centres undefined)
IC50 [3]: 2.4 µg/mL (≈ 5.87 µM)

C=CC(C)(C)c1[nH]c2c(CC=C(C)C)cc(CC=C(C)C)cc2c1C[C@@H]1NC(=O)C(=C)NC1=O
IC50 [4]: 1430 nM | IC50 [5]: 4200 nM

CC(C)[C@H](O)[C@@]12NC(=O)[C@H](C)[C@@H]1OC2=O [OMURALIDE]
IC50 [6]: 49 nM

CC(=O)C[C@]1(O)C(=O)C2=C3O[C@H](C)C(C)(C)[C@]3(O)C(=O)c3c(C)cc(O)c(c32)C1=O
IC50 [7]: 11300 nM

COc1nc(C/C=C(\C)C/C(C)=C/C(C)=C/[C@@H](C)[C@@H](O)/C(C)=C/C(C)=O)cc(O)c1OC
IC50 [8]: 20 nM

Cc1c(C)[n+](CCC(C)C)c(-c2n(CCc3ccccc3)c(C)c(C)[n+]2CCC(C)C)n1CCc1ccccc1
IC50 [9]: 780 nM | IC50 [10]: 9080 nM | IC50 [11]: 7020 nM | IC50 [12]: 750 nM

CCOC(=O)[C@H](Cc1c(O)cc(C)c2c(O)c3c(cc12)[C@@H](O)CCC3=O)C(=O)OC
IC50 [13]: 960 nM

CC(O)[C@H](NC(=O)c1cccc(NC=O)c1O)C(=O)O[C@@H](C)[C@H](OC(=O)Cc1ccccc1)[C@@H](C)C(=O)O (some centres undefined)
MIC [14]: 32 µg/mL (≈ 60.3 µM) | MIC [15]: 8 µg/mL (≈ 15.1 µM)

C[C@@]12OC(=O)[C@]1([C@@H](O)[C@@H]1C=CCCC1)NC(=O)[C@@H]2CCCl [MARIZOMIB]
GI50 [16]: < 11 nM | GI50 [17]: < 11 nM | GI50 [18]: < 11 nM | GI50 [19]: 35 nM | GI50 [20]: < 11 nM

C/C=C/[C@H](O[C@H]1O[C@@H](CO)[C@H](O)[C@@H](O)[C@@H]1O)[C@H](C)/C=C(C)/C=C/C/C(C)=C/Cc1nc(OC)c(OC)c(O)c1C
IC50 [21]: 2300 nM | IC50 [22]: 5500 nM | IC50 [23]: 1300 nM

C=C1CC[C@H]2C(C)(C)CCC[C@]2(C)[C@H]1C[C@@]12C[C@H]3C(=O)N(C)[C@@H](C(C)C)C(=O)N3[C@@H]1Nc1ccccc12
IC50 [24]: 1000 nM | IC50 [25]: 1000 nM | IC50 [26]: 1000 nM | IC50 [27]: 1000 nM

CC(C)[C@@H](C)/C=C/[C@@H](C)[C@H]1CC[C@H]2C3=CC(=O)N(CCO)[C@@]3(O)CC[C@]12C
IC50 [28]: 23.5 µg/mL (≈ 62.6 µM) | IC50 [29]: 18.1 µg/mL (≈ 48.2 µM) | IC50 [30]: 13 µg/mL (≈ 34.6 µM)

Cc1cc2c3c(c1C)C(C)(C)CCn3c(=O)c(=O)n2C[C@H](O)[C@H](O)[C@H](O)CO
MIC [31]: 12.4 µM (≈ 4.87 µg/mL)

Cc1ccc(OC(=O)CCN)cc1
IC50 [32]: 22 µg/mL (≈ 123 µM)

CC(=O)/C(=C\c1ccc(O)cc1)OC(Cc1c[nH]c2ccccc12)C(=O)O (centres undefined)
IC50 [9]: 5210 nM

CCC(C)C1OC(=O)/C=C/C=C/C=C/C=C/C=C/CC(O)CC(O)CC(O)CC(O)CC(O)CC(O)CC(O)CC(O)/C=C/C1C (centres undefined)
MIC [33]: 25 µM (≈ 16.3 µg/mL)

CC[C@@H](C)C1=C2NC(=O)[C@@](O)(C/C(=C\C=O)OC)C(=O)N2[C@H](C(C)C)C(=O)N1
IC50 [34]: 50000 nM

C=CCOc1ccccc1O [1-hydroxy-2-allyloxybenzene]
IC50 [35]: 22 µg/mL (≈ 146 µM) | MIC [36]: 200 µg/mL (≈ 1330 µM) | MIC [37]: 200 µg/mL (≈ 1330 µM) | MIC [38]: 200 µg/mL (≈ 1330 µM)
